Drawing on PubChem BioAssay (NCI), this text covers TGI and GI50 for 32 compounds.

Each structure is given as a SMILES string.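 Where inhibition never reached the appropriate level, the endpoint shown equals the highest concentration tested. Otherwise, values were interpolated linearly from a five-concentration, 48-hour dose response in 96-well plates. Here, GI50 denotes the concentration required for 50% inhibition of growth. TGI: concentration producing complete growth inhibition.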

Common to all, as to assay: growth of human tumour cells (NCI), 48 h
Test [1] relates to T-47D breast.
Test [2] relates to IGROV1 ovarian.
In test [3] the test system is KM12 colon.
Test [4] has as its system HCC-2998 colon.
Test [5] has as its system A498 renal.
The test system of test [6] is OVCAR-3 ovarian.
The subject of test [7] is MDA-MB-231 breast.
For test [8], the system named is SK-MEL-5 melanoma.

`CC(=O)OC(C)(C)CCC(=O)[C@](C)(O)[C@H]1[C@H](O)C[C@@]2(C)[C@@H]3CC=C4C(C)=C(OC5OC(CO)C(O)C(O)C5O)C(=O)C[C@@H]4[C@]3(C)C(=O)C[C@]12C` (stereo partly drawn): the TGI in test [1], in test [2], in test [3], in test [4], in test [5] and in test [6] was over 100 µM throughout. In addition, the TGI in test [7] and in test [8] was over 100 µM each time.
Turning to `COc1ccc(N=C2C(=Nc3ccc(OC)cc3)N(c3ccc(N(C)C)cc3)C(=S)N2c2ccc(OC)cc2)cc1`, the TGI in test [1], in test [2], in test [3], in test [4], in test [5] and in test [6] was over 100 µM each time. The TGI in test [7] and in test [8] was over 100 µM in each case.
Regarding `CC1=CCC[C@H]2[C@](C)(CC3=CC(=O)C(Sc4ccccc4)=CC3=O)[C@@H](C)CC[C@]12C`, the GI50 is 20.4 µM in test [1] and 16.2 µM in test [2]. Besides, the TGI is 72 µM in test [1]; 30.4 µM in test [2]; over 100 µM in test [3]; 41 µM in test [4]; 39 µM in test [5]; 31.4 µM in test [6]. The results for the TGI in test [7] and in test [8] were 51.8 µM and 30.9 µM, respectively.
For `CN(C)CCNC(=O)c1ccc(Cl)c2cc3ccccc3nc12`, the TGI in test [1] was determined as 12.1 µM; in test [2] it was 11.3 µM; in test [3], 11.4 µM; in test [4], 3.52 µM; in test [5], 1.33 µM; in test [6] it was 6.88 µM. In addition, the TGI in test [7] was found to be 3 µM; in test [8], 2.44 µM.
For the compound `O=C(c1ccc(O)c([N+](=O)[O-])c1)c1ccc(O)c([N+](=O)[O-])c1`, the TGI in test [1], in test [2], in test [3], in test [4], in test [5] and in test [6] was over 100 µM each time. The TGI in test [7] and in test [8] was over 100 µM in each case.
Consider `COC(=O)NC(Cc1ccccc1)NC(C)=O` (stereo not drawn), for which the TGI in test [1], in test [2], in test [3], in test [4], in test [5] and in test [6] was over 100 µM throughout. Further, the TGI in test [7] and in test [8] was over 100 µM each time.
In the case of `N#CC[N+]1(Cc2ccccn2)CCCC1`, the TGI in test [1], in test [2], in test [3], in test [4], in test [5] and in test [6] was over 100 µM in each case. Moreover, the TGI in test [7] and in test [8] was over 100 µM throughout.
Regarding `O=[N+]([O-])c1ccc(N2N=C(c3ccc4ccccc4c3O)CC2c2ccc(Cl)cc2)c([N+](=O)[O-])c1` (stereo not drawn), the TGI was over 100 µM in test [1]; over 100 µM in test [2]; over 100 µM in test [3]; over 100 µM in test [4]; over 100 µM in test [5]; 79.9 µM in test [6]. Also, the TGI in test [7] was over 100 µM; in test [8], 63.3 µM.
For the compound `CCCN(CCC)C1CCc2c(ccc3cc[nH]c23)C1` (stereo not drawn), the TGI in test [1] was over 100 µM; in test [2], over 100 µM; in test [3] it was over 100 µM; in test [4], 59.9 µM; in test [5], over 100 µM; in test [6], over 100 µM. Besides, the TGI is over 100 µM in test [7] and 41.4 µM in test [8].
In the case of `CC(C)(C)OC(=O)N1[C@@H]2Cc3ccc(N)cc3[C@@]1(C)c1ccccc12`, the TGI is 70.7 µM in test [1]; over 100 µM in test [2]; over 100 µM in test [3]; 47.2 µM in test [4]; 79.6 µM in test [5]; 68 µM in test [6]. Besides, the TGI in test [7] came out at 75.3 µM; in test [8] it was 12.4 µM.
In the case of `Cc1cc(N(CCC#N)CCC#N)ccc1/C=C1\SC(=S)NC1=O`, the TGI in test [1], in test [2], in test [3], in test [4], in test [5] and in test [6] was over 100 µM throughout. Further, the TGI in test [7] and in test [8] was over 100 µM each time.
`N[C@H](CCC(=O)NCP(=O)(O)O)C(=O)O`: the TGI in test [1], in test [2], in test [3], in test [4], in test [5] and in test [6] was over 100 µM each time. Besides, the TGI in test [7] and in test [8] was over 100 µM in each case.
With `O=C1C2=C(SCCS2)C(=O)c2c(Sc3ccc(Cl)cc3)c(Sc3ccc(Cl)cc3)c(Sc3ccc(Cl)cc3)c(Sc3ccc(Cl)cc3)c21`, the TGI in test [1] is over 100 µM; in test [2], over 100 µM; in test [3] it was over 100 µM; in test [4], over 100 µM; in test [5] it was 73.7 µM; in test [6], over 100 µM. The TGI is 85.3 µM in test [7] and over 100 µM in test [8].
Consider `COc1ccc(C2SCC(=O)N2NC(=O)C(C)Oc2ccccc2C)cc1` (stereo not drawn), for which the TGI in test [1], in test [2], in test [3], in test [4], in test [5] and in test [6] was over 100 µM throughout. Moreover, the TGI in test [7] and in test [8] was over 100 µM each time.
With `Nc1ccc2ccc(-c3ccc[nH]3)nc2n1`, the TGI in test [1], in test [2], in test [3], in test [4], in test [5] and in test [6] was over 100 µM each time. In addition, the TGI in test [7] and in test [8] was over 100 µM throughout.
Consider `COc1ccc2c(c1)c1nn(CCN3CCCCC3)c3ccc4c(=O)n(CCN(C)C)c(=O)n2c4c13`, for which the TGI was 0.454 µM in test [1]; under 0.0174 µM in test [2]; 0.0801 µM in test [3]; 0.03 µM in test [4]; 0.119 µM in test [5]; 0.344 µM in test [6]. Besides, the TGI was found to be 0.126 µM in test [7] and 0.283 µM in test [8].
As for `C=Cc1nc(C#N)c(N)o1`, the TGI in test [1], in test [2], in test [3], in test [4], in test [5] and in test [6] was over 100 µM each time. In addition, the TGI in test [7] and in test [8] was over 100 µM throughout.
`CC12CCC(C(=Nc3cc(C(F)(F)F)cc(C(F)(F)F)c3)C1=O)C2(C)C` (stereo not drawn): the TGI in test [1] is 74.3 µM; in test [2], 76.1 µM; in test [3], 91.7 µM; in test [4], 73.3 µM; in test [5] it was 62.5 µM; in test [6], over 100 µM. The TGI in test [7] and in test [8] was over 100 µM each time.
With `O=[N+]([O-])c1cccc(Cl)c1Oc1ccc(S(=O)(=O)/N=C(\NO)Nc2ccc(Cl)cc2)cc1`, the TGI amounted to 29.3 µM in test [1]; 35.6 µM in test [2]; 31.2 µM in test [3]; 24 µM in test [4]; 28.2 µM in test [5]; 22.6 µM in test [6]. The TGI was 47.6 µM in test [7] and 24.7 µM in test [8].
With `COc1ccc2c(c1)CCN1CCCc3ccccc3C21` (stereo not drawn), the TGI in test [1] was over 100 µM; in test [2], over 100 µM; in test [3] it was over 100 µM; in test [4], 80.8 µM; in test [5], over 100 µM; in test [6] it was over 100 µM. Also, the TGI in test [7] and in test [8] was over 100 µM each time.
On to `Cc1cc(O)cc(O)c1C(=O)O[C@]1(C)C(=O)C=C2C=C(/C=C/C(=O)O)OC=C2C1=O`, for which the TGI in test [1], in test [2], in test [3], in test [4], in test [5] and in test [6] was over 100 µM in each case. For the same compound, the TGI in test [7] and in test [8] was over 100 µM each time.
For `Cc1cc2oc(C)c(S(=O)(=O)NC(=O)Nc3ccc(Cl)cc3)c(=O)c2c(=O)o1`, the TGI in test [1], in test [2], in test [3], in test [4], in test [5] and in test [6] was over 100 µM in each case. Besides, the TGI in test [7] and in test [8] was over 100 µM throughout.
In the case of `CCOC(=O)C(NC(=O)CC)(Nc1ccc(F)c(Cl)c1)C(F)(F)F` (stereo not drawn), the TGI in test [1], in test [2], in test [3], in test [4], in test [5] and in test [6] was over 100 µM in each case. Besides, the TGI in test [7] and in test [8] was over 100 µM in each case.
Take `COCC12CCC(OC)C34C5CC6(O)C(OC)CC(OC(C)=O)(C5C6OC(=O)c5ccccc5)C(C(OC)C13)C4N(C)C2` (stereo not drawn): the TGI in test [1], in test [2], in test [3], in test [4], in test [5] and in test [6] was over 100 µM throughout. Further, the TGI in test [7] and in test [8] was over 100 µM throughout.
For the compound `CCCCCCCCCCCCCCCCCC(=O)Nc1ccn(C2CCC(COP(=O)(O)O)O2)c(=O)n1` (stereo not drawn), the TGI in test [1], in test [2], in test [3], in test [4], in test [5] and in test [6] was over 100 µM throughout. The TGI in test [7] and in test [8] was over 100 µM throughout.
In the case of `COC12C=CC(C=C1C#N)CC2` (stereo not drawn) (tested in a mixture with another compound), the TGI in test [1], in test [2], in test [3], in test [4], in test [5] and in test [6] was over 100 µM throughout. Further, the TGI in test [7] and in test [8] was over 100 µM throughout.
Regarding `Cc1cc(N2CCCC2)c([N+](=O)[O-])cc1[N+](=O)[O-]`, the TGI in test [1], in test [2], in test [3], in test [4], in test [5] and in test [6] was over 100 µM throughout. Moreover, the TGI in test [7] and in test [8] was over 100 µM each time.
In the case of `COC(=O)C1=CON2C3CC4CC(C3)CC(C4)C12C` (stereo not drawn), the TGI in test [1], in test [2], in test [3], in test [4], in test [5] and in test [6] was over 100 µM in each case. The TGI in test [7] and in test [8] was over 100 µM each time.
With `COc1cc(CCN(C)C)cc(OC)c1OC`, the TGI in test [1], in test [2], in test [3], in test [4], in test [5] and in test [6] was over 100 µM in each case. Besides, the TGI in test [7] and in test [8] was over 100 µM each time.
As for `c1csc(-c2ccsc2-c2ccsc2)c1`, the TGI is over 100 µM in test [1]; over 100 µM in test [2]; over 100 µM in test [3]; over 100 µM in test [4]; over 100 µM in test [5]; 87.6 µM in test [6]. The TGI in test [7] and in test [8] was over 100 µM in each case.
For `COC1(c2cccs2)c2ccccc2C(OC)(c2cccs2)c2ccccc21` (stereo not drawn), the TGI is over 100 µM in test [1]; over 100 µM in test [2]; over 100 µM in test [3]; over 100 µM in test [4]; 83.4 µM in test [5]; over 100 µM in test [6]. For the same compound, the TGI in test [7] and in test [8] was over 100 µM in each case.
Turning to `CCCC(=O)NC(Nc1ccc(F)cc1)(C(F)(F)F)C(F)(F)F`, the TGI in test [1], in test [2], in test [3], in test [4], in test [5] and in test [6] was over 100 µM in each case. The TGI in test [7] and in test [8] was over 100 µM in each case.
